Experimental data from article PMC10905675, “INX-315, a Selective CDK2 Inhibitor, Induces Cell Cycle Arrest and Senescence in Solid Tumors” (Cancer Discovery, 2023).
Like-named read-outs stand apart in the source and are kept apart here.

Tests used:
MKN1 = experiment: CellTiter Glo viability assay; assay type: cell-based; details: Homo sapiens, MKN-1, 144 h; MKN1 gastric carcinoma, 6 days
Method: (§1) An exception to this is MCF7PDRCl5-1 cells which were first cultured for 5 days without palbociclib then plated as described. MCF7PDRCl5-1 cells were treated with either a dose curve of the indicated CDK4/6i or a dose curve of INX-315 + 1 µmol/L of the indicated CDK4/6i. Cell viability was determined using the CellTiter-Glo assay (Promega, G9241) following manufacturer's instructions. Plates were processed on either BioTek Synergy2 multi-mode (Agilent) or ClarioSTAR (BMG Labtech) plate readers. T47D and MCF7 cells were seeded into […] plates using BioTek 406 (Aglient) and treated with a ten-point dose concentration from 10 µmol/L to 0.3 nmol/L of INX-315 for 2× doubling times. Plates were fixed with 4% PFA and stained with Rhodamine-Phalloidin (Bio-Trend, 00027) and DAPI (5 mg/mL, Invitrogen, catalog no. D1306). Plates were imaged using CellInsight CX7 LZR and DAPI-positive cells were counted using Thermo Fisher Scientific HCS Studio Cell Analysis Software.

[1] = tested on: palbociclib-resistant MCF7 cells; experiment: CellTiter Glo viability assay; assay type: cell-based; details: Homo sapiens
Method: as §1

[2] = tested on: all CCNE1-amplified lines; experiment: CellTiter Glo viability assay; assay type: cell-based; details: 144 h
Method: as §1

CDK9/cyclin T1 [3] = target: T1, CDK9/cyclin T1 (Homo sapiens, UniProt P50750); experiment: Nanosyn biochemical assay; details: Supp Fig S1D, representative dose response curve, read-out: IC50 CDK9 - Cyclin T1
T1 construct: purchased Carna 04-110
Method: (§2) Compounds were tested in kinase assays (Nanosyn, Inc.). The assays were completed using microfluidic kinase detection technology (Caliper Assay Platform). The compounds were tested in 12-point dose–response format in singlicate at the Km for ATP. Phosphoacceptor substrate peptide concentration used was 1 µmol/L and staurosporine was used as the reference compound for all assays. Details for individual Nanosyn assays performed are provided here: […]

CDK5 = target: T2, CDK5 (Homo sapiens, UniProt Q00535); experiment: Nanosyn biochemical assay
T2 construct: purchased ThermoFisher PV3000
Method: as §2

CDK3/cyclin E1 = target: T3, CDK3/cyclin E1 (Homo sapiens, UniProt Q00526); experiment: Nanosyn biochemical assay
T3 construct: purchased BPS 40103
Method: as §2

CDK1/cyclin B1 [4] = target: T4, CDK1/cyclin B1 (Homo sapiens, UniProt P06493); experiment: Nanosyn biochemical assay
T4 construct: purchased Millipore 14-450M
Method: as §2

CDK7 = target: T5, CDK7 (Homo sapiens, UniProt P50613); experiment: Nanosyn biochemical assay; details: Supp Fig S1C, value (SEM), read-out: IC50 (nM) CDK7
T5 construct: purchased Carna 04-108
Method: as §2

CDK4/cyclin D1 = target: T6, CDK4/cyclin D1 (Homo sapiens, UniProt P11802); experiment: Nanosyn biochemical assay
T6 construct: purchased ThermoFisher PV4400
Method: as §2

CDK2/cyclin A2 = target: T7, CDK2/cyclin A2 (Homo sapiens, UniProt P24941); experiment: Nanosyn biochemical assay; details: Supp Fig S1D, representative dose response curve, read-out: IC50 CDK2 - Cyclin A
T7 construct: purchased Millipore 14-448
Method: as §2

CDK5/p25 = target: T8, CDK5/p25 (Homo sapiens, UniProt Q00535); experiment: Nanosyn biochemical assay; details: ATP at Km, value (SEM), read-out: IC50 (nmol/L) CDK5/p25
T8 construct: purchased BPS 40105
Method: as §2

CDK2/cyclin E1 [5] = target: T9, CDK2/cyclin E1 (Homo sapiens, UniProt P24941); experiment: Nanosyn biochemical assay; details: for IC50: Nanosyn
T9 construct: purchased Millipore 14-475
Method: as §2

CDK6/cyclin D3 = target: T10, CDK6/cyclin D3 (Homo sapiens, UniProt Q00534); experiment: Nanosyn biochemical assay; details: Supp Fig S1D, representative dose response curve, read-out: IC50 CDK6 - Cyclin D3
T10 construct: purchased Carna 04-107
Method: as §2

CDK2/cyclin A1 = target: T11, CDK2/cyclin A1 (Homo sapiens, UniProt P24941); experiment: NanoBRET live cell target engagement; assay type: binding
T11 construct: host or cells: HEK293
Method: (§3) Reaction Bio (Malvern, PA) conducted NanoBRET assays utilizing Promega NanoLuc technology with two replicates per experiment. The CDK2/E1 and CDK1/B1 values are the average of two separate experiments.
(§4) HEK293 cells were transfected using Opti-MEM without serum containing ratios of 9.0 µg/mL of Transfection Carrier DNA, 1.0 µg/mL of NanoLuc fusion vector DNA and 1 mL of Opti-MEM without phenol red. 30 µL of FuGENE HD transfection reagent was added to each milliliter of DNA mixture to form lipid:DNA complex. After incubation for 20 minutes at room temperature, 1 part lipid/DNA complex was added to 20 parts HEK293 cells in suspension. Cells were then plated and incubated overnight before being trypsinized and resuspended at 2 × 10^5 cells/mL. NanoBRET tracer reagent was added to cells at a ratio of 1 part tracer to 20 parts cell suspension. Cells were added to a 384-well plate and incubated for 1 hour. Plates were removed and incubated at room temperature for 15 minutes to equilibrate before 3x complete substrate plus inhibitor was added. After 2–3 minutes of incubation at room temperature, donor and acceptor wavelengths (460 nm and 600 nm, respectively) were measured using an Envision 2104 plate reader.

CDK9/cyclin T1 [6] = target: T1, CDK9/cyclin T1; experiment: NanoBRET live cell target engagement; assay type: binding
Method: as §3, §4

CDK1/cyclin B1 [7] = target: T4, CDK1/cyclin B1; experiment: NanoBRET live cell target engagement; assay type: binding
Method: as §3, §4

CDK2/cyclin E1 [8] = target: T9, CDK2/cyclin E1; experiment: NanoBRET live cell target engagement; assay type: binding
Method: as §3, §4

[9] = NanoBRET intracellular IC50 ratio

T2 sequence (Q00535 whole entry): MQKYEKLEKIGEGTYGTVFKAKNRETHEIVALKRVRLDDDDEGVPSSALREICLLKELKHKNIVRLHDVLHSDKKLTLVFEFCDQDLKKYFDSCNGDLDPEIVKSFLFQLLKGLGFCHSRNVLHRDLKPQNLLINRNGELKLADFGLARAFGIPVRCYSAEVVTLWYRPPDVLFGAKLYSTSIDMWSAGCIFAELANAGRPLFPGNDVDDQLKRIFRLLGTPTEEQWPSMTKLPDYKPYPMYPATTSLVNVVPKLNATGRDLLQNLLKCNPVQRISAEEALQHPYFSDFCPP
T2 sequence (Q15078 2-307 partner limits assumed): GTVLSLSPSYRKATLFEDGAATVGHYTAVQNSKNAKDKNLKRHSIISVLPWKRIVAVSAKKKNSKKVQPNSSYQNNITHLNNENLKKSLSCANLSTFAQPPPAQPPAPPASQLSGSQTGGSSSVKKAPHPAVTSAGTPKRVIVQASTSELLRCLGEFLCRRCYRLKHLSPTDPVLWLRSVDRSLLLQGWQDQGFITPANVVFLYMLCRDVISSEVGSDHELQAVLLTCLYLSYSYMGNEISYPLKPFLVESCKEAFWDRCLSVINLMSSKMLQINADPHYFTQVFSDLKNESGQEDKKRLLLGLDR
T4 sequence (P06493 whole entry): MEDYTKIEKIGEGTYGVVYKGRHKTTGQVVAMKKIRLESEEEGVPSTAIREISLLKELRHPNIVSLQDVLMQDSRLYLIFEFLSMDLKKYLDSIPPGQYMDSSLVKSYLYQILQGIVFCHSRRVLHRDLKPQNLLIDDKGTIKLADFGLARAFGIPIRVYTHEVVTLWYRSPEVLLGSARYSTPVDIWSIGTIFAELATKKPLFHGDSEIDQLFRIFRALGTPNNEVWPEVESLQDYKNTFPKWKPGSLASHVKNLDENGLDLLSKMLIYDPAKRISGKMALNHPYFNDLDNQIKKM
T4 sequence (P14635 whole entry partner): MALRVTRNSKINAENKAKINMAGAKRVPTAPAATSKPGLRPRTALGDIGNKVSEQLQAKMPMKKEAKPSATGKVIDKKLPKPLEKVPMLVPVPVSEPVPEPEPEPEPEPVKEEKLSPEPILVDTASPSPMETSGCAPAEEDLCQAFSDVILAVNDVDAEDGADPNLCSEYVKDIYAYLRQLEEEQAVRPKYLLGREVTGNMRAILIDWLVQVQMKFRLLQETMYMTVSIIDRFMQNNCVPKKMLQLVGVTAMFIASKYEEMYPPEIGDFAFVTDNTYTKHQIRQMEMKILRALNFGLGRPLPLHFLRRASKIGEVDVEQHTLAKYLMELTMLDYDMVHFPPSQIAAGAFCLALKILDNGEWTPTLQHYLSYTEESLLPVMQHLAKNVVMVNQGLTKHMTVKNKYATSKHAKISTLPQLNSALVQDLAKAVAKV
T1 sequence (P50750 whole entry): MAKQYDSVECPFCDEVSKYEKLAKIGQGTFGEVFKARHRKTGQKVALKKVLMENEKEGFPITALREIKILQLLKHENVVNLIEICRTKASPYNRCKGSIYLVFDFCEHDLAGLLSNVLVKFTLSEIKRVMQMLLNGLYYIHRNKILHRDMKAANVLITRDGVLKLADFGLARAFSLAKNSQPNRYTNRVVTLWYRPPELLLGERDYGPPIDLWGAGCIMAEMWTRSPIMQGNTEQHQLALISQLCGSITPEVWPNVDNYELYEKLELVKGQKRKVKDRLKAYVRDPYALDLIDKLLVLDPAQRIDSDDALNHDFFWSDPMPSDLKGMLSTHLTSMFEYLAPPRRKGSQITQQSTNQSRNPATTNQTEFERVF
T1 sequence (O60563 whole entry partner): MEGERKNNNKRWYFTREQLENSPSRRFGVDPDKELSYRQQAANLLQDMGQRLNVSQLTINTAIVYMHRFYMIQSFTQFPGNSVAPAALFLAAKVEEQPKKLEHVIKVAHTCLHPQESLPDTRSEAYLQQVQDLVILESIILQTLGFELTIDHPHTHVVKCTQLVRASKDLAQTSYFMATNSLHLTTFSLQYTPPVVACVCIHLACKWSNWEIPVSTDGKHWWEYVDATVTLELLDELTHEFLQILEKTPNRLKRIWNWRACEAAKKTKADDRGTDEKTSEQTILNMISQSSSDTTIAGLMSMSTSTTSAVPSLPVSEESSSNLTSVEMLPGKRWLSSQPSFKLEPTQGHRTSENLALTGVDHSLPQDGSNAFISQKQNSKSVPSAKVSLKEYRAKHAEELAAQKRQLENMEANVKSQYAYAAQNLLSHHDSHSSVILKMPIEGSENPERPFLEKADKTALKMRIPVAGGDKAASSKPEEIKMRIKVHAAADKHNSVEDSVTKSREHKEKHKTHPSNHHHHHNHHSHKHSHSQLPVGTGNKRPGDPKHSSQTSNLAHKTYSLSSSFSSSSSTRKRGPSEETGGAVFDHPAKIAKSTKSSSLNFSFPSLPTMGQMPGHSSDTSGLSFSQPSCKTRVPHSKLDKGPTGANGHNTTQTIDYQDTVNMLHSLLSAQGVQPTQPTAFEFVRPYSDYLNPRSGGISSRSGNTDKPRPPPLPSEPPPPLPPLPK
T6 sequence (P11802 whole entry): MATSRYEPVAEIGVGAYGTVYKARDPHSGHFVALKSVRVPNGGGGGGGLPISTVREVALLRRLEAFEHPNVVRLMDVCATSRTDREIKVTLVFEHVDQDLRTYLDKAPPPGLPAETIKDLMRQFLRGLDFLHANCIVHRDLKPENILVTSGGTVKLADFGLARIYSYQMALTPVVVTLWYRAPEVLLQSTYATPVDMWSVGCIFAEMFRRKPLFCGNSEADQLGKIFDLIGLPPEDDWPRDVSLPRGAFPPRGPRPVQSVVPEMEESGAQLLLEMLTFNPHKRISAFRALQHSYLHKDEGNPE
T6 sequence (P24385 whole entry partner): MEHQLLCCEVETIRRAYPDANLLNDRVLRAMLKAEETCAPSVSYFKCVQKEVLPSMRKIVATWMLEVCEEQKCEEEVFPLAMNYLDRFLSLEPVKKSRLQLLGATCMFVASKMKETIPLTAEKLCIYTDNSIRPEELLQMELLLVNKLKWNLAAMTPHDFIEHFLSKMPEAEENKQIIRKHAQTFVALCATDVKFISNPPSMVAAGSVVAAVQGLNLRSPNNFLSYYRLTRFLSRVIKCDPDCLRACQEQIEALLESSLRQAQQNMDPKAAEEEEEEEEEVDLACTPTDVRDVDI
T8 sequence (Q00535 whole entry): as the sequence (Q00535 whole entry) above
T8 sequence (Q15078 99-307 partner limits assumed): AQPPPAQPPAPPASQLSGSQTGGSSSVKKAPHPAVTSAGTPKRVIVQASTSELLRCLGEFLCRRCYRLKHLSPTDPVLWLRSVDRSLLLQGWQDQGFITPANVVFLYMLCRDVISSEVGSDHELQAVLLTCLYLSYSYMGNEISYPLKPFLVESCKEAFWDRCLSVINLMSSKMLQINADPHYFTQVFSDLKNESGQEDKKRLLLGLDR
T5 sequence (P50613 whole entry): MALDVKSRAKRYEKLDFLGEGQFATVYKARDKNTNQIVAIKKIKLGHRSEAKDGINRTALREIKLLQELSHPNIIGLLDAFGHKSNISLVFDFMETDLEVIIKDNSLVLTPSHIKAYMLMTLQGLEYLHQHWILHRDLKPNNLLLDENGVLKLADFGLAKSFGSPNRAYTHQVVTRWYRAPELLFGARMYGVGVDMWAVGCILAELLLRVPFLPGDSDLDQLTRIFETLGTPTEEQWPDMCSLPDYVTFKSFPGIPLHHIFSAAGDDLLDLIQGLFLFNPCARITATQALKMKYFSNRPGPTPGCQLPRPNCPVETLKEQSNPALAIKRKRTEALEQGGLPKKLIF
T5 sequence (P51946 whole entry partner): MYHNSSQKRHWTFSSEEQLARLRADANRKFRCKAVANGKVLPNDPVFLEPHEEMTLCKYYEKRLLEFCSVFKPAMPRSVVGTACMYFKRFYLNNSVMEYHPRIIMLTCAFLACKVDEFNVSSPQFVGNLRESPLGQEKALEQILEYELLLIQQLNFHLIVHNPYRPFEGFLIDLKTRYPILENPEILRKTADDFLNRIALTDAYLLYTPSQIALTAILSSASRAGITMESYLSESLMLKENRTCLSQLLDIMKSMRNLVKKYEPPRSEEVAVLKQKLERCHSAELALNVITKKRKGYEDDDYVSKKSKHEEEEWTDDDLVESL
T5 sequence (P51948 whole entry partner): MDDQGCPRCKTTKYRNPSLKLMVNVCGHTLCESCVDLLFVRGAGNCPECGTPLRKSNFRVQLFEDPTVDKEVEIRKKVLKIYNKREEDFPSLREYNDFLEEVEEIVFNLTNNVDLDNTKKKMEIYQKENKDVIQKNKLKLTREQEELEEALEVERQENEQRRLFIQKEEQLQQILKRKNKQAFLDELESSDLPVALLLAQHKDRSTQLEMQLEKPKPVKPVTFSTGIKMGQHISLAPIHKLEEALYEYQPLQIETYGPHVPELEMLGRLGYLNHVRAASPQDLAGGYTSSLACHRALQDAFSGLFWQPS

`NS(=O)(=O)c1ccc(Nc2ncc3cc4n(c3n2)C2(CCCCC2)C(=O)NN4)cc1` [INX-315] was tested, and the IC50 (MKN1) was 44 nM, the IC50 ([1]; MCF7, Supp Fig S9D, DMSO + INX-315, read-out: INX-315 IC50) was 906 nM and the IC50 ([1]; MCF7, cultured out of CDK4/6i, read-out: IC50 to INX-315) was < 900 nM. The IC50 ([1]; MCF7, with abemaciclib (1 µmol/L), read-out: IC50 to INX-315) was 28 nM, the IC50 ([1]; MCF7, with lerociclib (1 µmol/L), read-out: IC50 to INX-315) was 23 nM and the IC50 ([1]; MCF7, with palbociclib (1 µmol/L), read-out: IC50 to INX-315) was 14 nM. The IC50 [2] was 36 nM, the IC50 (CDK9/cyclin T1 [3]) was 38.6 nM and the IC50 (CDK5; ATP at Km, value (SEM), read-out: IC50 (nmol/L) CDK5) was 23.1 nmol/L. It also gave an IC50 (CDK5; Supp Fig S1C, value (SEM), read-out: IC50 (nM) CDK5) of 23.1 nmol/L, an IC50 (CDK5; Supp Fig S1D, representative dose response curve, read-out: IC50 CDK5 - p35) of 23.1 nmol/L and an IC50 (CDK3/cyclin E1; ATP at Km, value (SEM), read-out: IC50 (nmol/L) CDK3/cyclin E1) of 15.1 nmol/L. The IC50 (CDK3/cyclin E1; Supp Fig S1D, representative dose response curve, read-out: IC50 CDK3 - Cyclin E) was 15.1 nmol/L, the IC50 (CDK1/cyclin B1 [4]; Supp Fig S1C, value (SEM), read-out: IC50 (nM) CDK1/B1) was 30 nM and the IC50 (CDK1/cyclin B1 [4]; Supp Fig S1D, representative dose response curve, read-out: IC50 CDK1 - Cyclin B) was 29.1 nM. For the same compound, the IC50 (CDK7) was > 10000 nM, the IC50 (CDK4/cyclin D1; Supp Fig S1C, value (SEM), read-out: IC50 (nM) CDK4/cyclin D1) was 126 nM and the IC50 (CDK4/cyclin D1; Supp Fig S1D, representative dose response curve, read-out: IC50 CDK4 - Cyclin D) was 127 nM. The IC50 (CDK2/cyclin A2) was 2.96 nM, the IC50 (CDK5/p25) was 21.4 nmol/L and the IC50 (CDK2/cyclin E1 [5]; Supp Fig S1C, value (SEM), read-out: IC50 (nM) CDK2/cyclin E1) was 0.6 nM. The IC50 (CDK2/cyclin E1 [5]; Supp Fig S1D, representative dose response curve, read-out: IC50 CDK2 - Cyclin E) was 0.644 nM, the “increase in potency on CDK2 relative to compound C” value (CDK2/cyclin E1 [5]; biochemical IC50s) was ~10 fold and the “selectivity for CDK2 compared with CDK1” value (CDK2/cyclin E1 [5]; biochemical IC50s) was 50 fold. The IC50 (CDK6/cyclin D3) was 291 nM, the “Fold vs. CDK2/E1, CDK2/cyclin A1” value (CDK2/cyclin A1; [9]) was 31 and the IC50 (CDK2/cyclin A1; NanoBRET, HEK293 cells, value (SD), read-out: intracellular IC50 (nmol/L) CDK2/cyclin A1) was 71 nmol/L. For the same compound, the “Fold vs. CDK2/E1, CDK9/cyclin T1” value (CDK9/cyclin T1 [6]; [9]) was 1283, the IC50 (CDK9/cyclin T1 [6]; NanoBRET, HEK293 cells, value (SD), read-out: intracellular IC50 (nmol/L) CDK9/cyclin T1) was 2950 nmol/L and the “Fold vs. CDK2/E1, CDK1/cyclin B1” value (CDK1/cyclin B1 [7]; [9]) was 163. For the same compound, the IC50 (CDK1/cyclin B1 [7]; NanoBRET, HEK293 cells, value (SD), read-out: intracellular IC50 (nmol/L) CDK1/cyclin B1) was 374 nmol/L, the “Fold vs. CDK2/E1, CDK2/cyclin E1” value (CDK2/cyclin E1 [8]; [9]) was 1 and the “increase of intracellular IC50 over the biochemical IC50, CDK2/cyclin E1” value (CDK2/cyclin E1 [8]; NanoBRET vs biochemical) was 4 fold. It also gave an IC50 (CDK2/cyclin E1 [8]; NanoBRET, HEK293 cells, value (SD), read-out: intracellular IC50 (nmol/L) CDK2/cyclin E1) of 2.3 nmol/L.
